Reference: patent publication US9617256B2 (priority 2007, dated 2017)
Values after ≈ are worked out from the molar mass of the structure shown.

Tests used:
[1] = system: AECO063 (ATCC25922 bearing an acrAB mutation); experiment: microbe, parasite or virus in culture; assay type: cell-based, E. coli; settings: for MIC: Escherichia coli, ATCC25922, read-out: MIC AECO063
How it was run: (§1)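 Incubation: 35° C., ambient air, 18-24 h. Medium: cation-adjusted Mueller-Hinton broth with 2-fold serial dilutions of drug. Inoculum: 3×10^5–7×10^5 CFU/mL final, per CLSI microdilution method.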

[2] = system: APAE006 in the presence of 8 micrograms per milliliter of polymyxin B nonapeptide; assay type: cell-based, P. aeruginosa; settings: in the presence of 8 micrograms per milliliter of polymyxin B nonapeptide
How it was run: (§2)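 Growth inhibition was scored by CLSI broth microdilution using cation-adjusted Mueller-Hinton broth and a final inoculum between 3×10^5 and 7×10^5 CFU/mL, incubated 18-24 hours at 35° C.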

[3] = system: APAE006 (strain of P. aeruginosa in which all efflux pumps are inactivated); experiment: microbe, parasite or virus in culture; assay type: cell-based; settings: for MIC: Pseudomonas aeruginosa, read-out: MIC APAE006, P. aeruginosa, all efflux pumps inactivated
How it was run: as §2

APAE001 (ATCC27853) = experiment: MIC broth microdilution, APAE001; assay type: cell-based, P. aeruginosa; settings: for MIC: Pseudomonas aeruginosa, ATCC27853, read-out: MIC APAE001, APAE001 is ATCC27853
How it was run: as §1

[4] = system: AABA1060 (clinical isolate of Acinetobacter baumannii); experiment: MIC broth microdilution, AABA1060; assay type: cell-based; settings: for MIC: Acinetobacter baumannii, read-out: MIC AABA1060
How it was run: as §1

[5] = system: ASAU001 (laboratory strain of S. aureus, ATCC29213); experiment: MIC broth microdilution, ASAU001; assay type: cell-based; settings: for MIC: Staphylococcus aureus, ATCC29213, read-out: MIC ASAU001
How it was run: as §1

AECO001 HSA AGP = experiment: MIC broth microdilution, AECO001 HSA AGP; assay type: cell-based, E. coli; settings: for MIC: Escherichia coli
How it was run: as §1

AECO001 (ATCC25922) = experiment: MIC broth microdilution, AECO001; assay type: cell-based, E. coli; settings: for MIC: Escherichia coli, ATCC25922, read-out: MIC AECO001
How it was run: as §1

Row | SMILES | MIC [1] [µg/mL] | MIC APAE006 + PMBN [2] | MIC [3] [µg/mL] | MIC (APAE001 (ATCC27853)) [µg/mL] | MIC [4] [µg/mL] | MIC [5] [µg/mL] | MIC (AECO001 HSA AGP) [µg/mL] | MIC (AECO001 (ATCC25922)) [µg/mL] | MIC AECO063 ([1]; ATCC25922 bearing an acrAB mutation) | MIC APAE006 ([3]; P. aeruginosa, all efflux pumps inactivated) | MIC APAE001 (APAE001 (ATCC27853); APAE001 is ATCC27853) | MIC AABA1060 ([4]; clinical isolate of Acinetobacter baumannii) | MIC ASAU001 ([5]; S. aureus ATCC29213) | MIC AECO001 HSA AGP (AECO001 HSA AGP) | MIC AECO001 (AECO001 (ATCC25922); AECO001 is ATCC25922)
1 | C[C@@H](O)[C@H](NC(=O)c1ccc(/C=C/C#Cc2ccc(CNC3CC3)cc2)cc1)C(=O)NO [Example 113-3] | < 2 | A (MIC's of 2.0 μg/mL or less = A) | < 2 | 2 to 16 (≈ 4.61 to 36.9 µM) | 2 to 16 (≈ 4.61 to 36.9 µM) | > 64 | 2 to 16 (≈ 4.61 to 36.9 µM) | < 2 |  |  |  |  |  |  | 
2 | C[C@H](O)[C@H](NC(=O)c1ccc(/C=C/C#Cc2ccc(CNC3CC3)cc2)cc1)C(=O)NO [Example 113-4] | < 2 | A (MIC's of 2.0 μg/mL or less = A) | < 2 | 2 to 16 (≈ 4.61 to 36.9 µM) | 2 to 16 (≈ 4.61 to 36.9 µM) | > 64 | 2 to 16 (≈ 4.61 to 36.9 µM) | < 2 |  |  |  |  |  |  | 
3 | CC(C)(O)[C@H](NC(=O)c1ccc(/C=C/C#Cc2ccc(CNC3CC3)cc2)cc1)C(=O)NO [Example 113-5] | < 2 | A (MIC's of 2.0 μg/mL or less = A) | < 2 | < 2 | < 2 | 16 to 64 (≈ 35.8 to 143 µM) | < 2 | < 2 |  |  |  |  |  |  | 
4 | CO[C@H](C)[C@H](NC(=O)c1ccc(/C=C/C#Cc2ccc(CNC3CC3)cc2)cc1)C(=O)NO [Example 113-7] | < 2 | A (MIC's of 2.0 μg/mL or less = A) | < 2 | 2 to 16 (≈ 4.47 to 35.8 µM) | 2 to 16 (≈ 4.47 to 35.8 µM) | > 64 | 2 to 16 (≈ 4.47 to 35.8 µM) | < 2 |  |  |  |  |  |  | 
5 | C[C@@H](N)[C@H](NC(=O)c1ccc(/C=C/C#Cc2ccc(CN3CCS(=O)(=O)CC3)cc2)cc1)C(=O)NO [Example 113-8] |  | A (MIC's of 2.0 μg/mL or less = A) |  |  |  |  |  |  | A (MIC's of 2.0 μg/mL or less = A) | A (MIC's of 2.0 μg/mL or less = A) | B (MIC's of greater than 2.0 μg/mL to 16.0 μg/mL = B) | A (MIC's of 2.0 μg/mL or less = A) | C (MIC's of greater than 16.0 μg/mL to 64.0 μg/mL = C) | B (MIC's of greater than 2.0 μg/mL to 16.0 μg/mL = B) | A (MIC's of 2.0 μg/mL or less = A)
6 | COCc1ccc(C#C/C=C/c2ccc(C(=O)N[C@H](C(=O)NO)[C@@H](C)N)cc2)cc1 [Example 113-9] | < 2 | A (MIC's of 2.0 μg/mL or less = A) | < 2 | < 2 | < 2 | 16 to 64 (≈ 39.3 to 157 µM) | 2 to 16 (≈ 4.91 to 39.3 µM) | < 2 |  |  |  |  |  |  | 
7 | CCOCc1ccc(C#C/C=C/c2ccc(C(=O)N[C@H](C(=O)NO)[C@@H](C)N)cc2)cc1 [Example 113-10] | < 2 | A (MIC's of 2.0 μg/mL or less = A) | < 2 | 2 to 16 (≈ 4.74 to 38 µM) | 2 to 16 (≈ 4.74 to 38 µM) | 16 to 64 (≈ 38 to 152 µM) | 2 to 16 (≈ 4.74 to 38 µM) | < 2 |  |  |  |  |  |  | 
8 | O=C(CNC1CC1)NC[C@H](NC(=O)c1ccc(/C=C/C#Cc2ccc(CO)cc2)cc1)C(=O)NO [Example 113-11] | < 2 | A (MIC's of 2.0 μg/mL or less = A) | < 2 | 2 to 16 (≈ 4.2 to 33.6 µM) | 16 to 64 (≈ 33.6 to 134 µM) | > 64 | 16 to 64 (≈ 33.6 to 134 µM) | < 2 |  |  |  |  |  |  | 
9 | C[C@@H](N)[C@H](NC(=O)c1ccc(/C=C/C#Cc2ccccc2)cc1)C(=O)NO [Example 114-1, N-((1S,2R)-2-Amino-1-hydroxycarbamoyl-propyl)-4-((E)-4-phenyl-but-1-en-3-ynyl)-benzamide] | < 2 | A (MIC's of 2.0 μg/mL or less = A) | < 2 | < 2 | < 2 | 2 to 16 (≈ 5.5 to 44 µM) | 2 to 16 (≈ 5.5 to 44 µM) | < 2 |  |  |  |  |  |  | 
10 | C[C@@H](N)[C@H](NC(=O)c1ccc(/C=C/C#Cc2ccc(F)cc2)cc1)C(=O)NO [Example 114-2] | < 2 | A (MIC's of 2.0 μg/mL or less = A) | < 2 | 2 to 16 (≈ 5.24 to 41.9 µM) | 2 to 16 (≈ 5.24 to 41.9 µM) | 16 to 64 (≈ 41.9 to 168 µM) | 2 to 16 (≈ 5.24 to 41.9 µM) | < 2 |  |  |  |  |  |  | 
11 | C[C@@H](N)[C@H](NC(=O)c1ccc(/C=C/C#Cc2ccccc2F)cc1)C(=O)NO [Example 114-3] | < 2 | A (MIC's of 2.0 μg/mL or less = A) | < 2 | < 2 | < 2 | 16 to 64 (≈ 41.9 to 168 µM) | 2 to 16 (≈ 5.24 to 41.9 µM) | < 2 |  |  |  |  |  |  | 
12 | C[C@@H](N)[C@H](NC(=O)c1ccc(/C=C/C#Cc2cccc(Cl)c2)cc1)C(=O)NO [Example 114-4] | < 2 | A (MIC's of 2.0 μg/mL or less = A) | < 2 | 2 to 16 (≈ 5.03 to 40.2 µM) | 2 to 16 (≈ 5.03 to 40.2 µM) | 2 to 16 (≈ 5.03 to 40.2 µM) | 2 to 16 (≈ 5.03 to 40.2 µM) | < 2 |  |  |  |  |  |  | 
13 | C[C@@H](N)[C@H](NC(=O)c1ccc(/C=C/C#Cc2ccccc2Cl)cc1)C(=O)NO [Example 114-5] | < 2 | A (MIC's of 2.0 μg/mL or less = A) | < 2 | 2 to 16 (≈ 5.03 to 40.2 µM) | < 2 | 2 to 16 (≈ 5.03 to 40.2 µM) | 2 to 16 (≈ 5.03 to 40.2 µM) | < 2 |  |  |  |  |  |  | 
14 | C[C@@H](N)[C@H](NC(=O)c1ccc(/C=C/C#Cc2ccc(C(F)(F)F)cc2)cc1)C(=O)NO [Example 114-6] | < 2 | A (MIC's of 2.0 μg/mL or less = A) | 2 to 16 (≈ 4.64 to 37.1 µM) | 2 to 16 (≈ 4.64 to 37.1 µM) | 2 to 16 (≈ 4.64 to 37.1 µM) | 2 to 16 (≈ 4.64 to 37.1 µM) | 2 to 16 (≈ 4.64 to 37.1 µM) | < 2 |  |  |  |  |  |  | 
15 | C[C@@H](N)[C@H](NC(=O)c1ccc(/C=C/C#Cc2ccc(OC(F)(F)F)cc2)cc1)C(=O)NO [Example 114-7] | < 2 | A (MIC's of 2.0 μg/mL or less = A) | 2 to 16 (≈ 4.47 to 35.8 µM) | 2 to 16 (≈ 4.47 to 35.8 µM) | 2 to 16 (≈ 4.47 to 35.8 µM) | 2 to 16 (≈ 4.47 to 35.8 µM) | 2 to 16 (≈ 4.47 to 35.8 µM) | 2 to 16 (≈ 4.47 to 35.8 µM) |  |  |  |  |  |  | 
